From patent US12022830B2, “Formulations of metal and ascorbic acid complexes, their obtaining and use” (INTERMAG SP. Z O.O., priority 2017, dated 2024)

Experiments:
[1] = tested on: Radish (Raphanus sativus) of Ronda type; test: Vanadyl ascorbate in cultivation of radish; type: in vivo; conditions: foliar twice, 0.004% V, total 20 g V/ha
Protocol: Radish (Raphanus sativus) of Ronda type was cultivated in a plastic tunnel in a peat substrate. Vanadyl ascorbate at a 1:2 molar ratio of V:Asc (VO(C6H7O6)2.2H2O) was applied in the form of foliar spraying twice during the entire cultivation, vanadium concentration in the working liquid was 0.004% V. In two applications, the total vanadium dose per hectare was 20 g V/ha. The experiment was performed in a random block system, combinations were drawn in 4 blocks. There were 20 plants for each combination.
Foliar application of vanadyl ascorbate VO(C6H7O6)2.2H2O has increased the mass of radish root by 12% compared to the control plants. […] Furthermore, in vanadium treated plants, the content of flavonoids responsible for protecting plant cells from oxidative stress, which is caused, among others, by through drought, has increased almost twice as compared to the control.

iceberg lettuce = test: Vanadyl ascorbate in cultivation of iceberg lettuce, head mass, chlorophyll, flavonoids, nutrients; type: in vivo, Lactuca sativa; conditions: foliar twice, total 10 g V/ha
Excerpt: Iceberg cabbage lettuce (Lactuca sativa) of Rubette type was cultivated in a plastic tunnel in pots with a capacity of 3 l filled with a peat substrate. Titanil ascorbate at a 1:2 molar ratio of Ti: Asc (TiO(C6H7O6)2.2H2O) and liquid titanil ascorbate at a 1.5:1 molar ratio of (obtained in situ—according to the method of patent specification PL 163688 or PL 214628) were applied in a foliar manner twice during the entire cultivation, the concentration of titanium in the working liquid for both formulations was 0.00085% Ti. In two applications, the total titanium dose per hectare was 3.4 g Ti/ha. The experiment was performed in a random block system, combinations were drawn in 4 blocks. There were 20 lettuce plants for each combination.
The experiment was performed analogously to the titanium complex at a 1:2 or 1.5:1 (Example 20) molar ratio of Ti:ascorbic acid. VO(C6H7O6)2.2H2O was used in the form of foliar spraying twice, vanadium concentration in the working liquid was 0.001% V. In two applications, the total micronutrient dose per hectare was 10 g V/ha.
Foliar application of VO(C6H7O6)2.2H2O increased the mass of the lettuce head by 14% compared to the control. Furthermore, vanadium ascorbate at a 1:2 molar ratio of V:Asc increased the chlorophyll content. Also, differences were found in the level of flavonoid accumulation between the control object and the combination treated with VO(C6H7O6)2.2H2O.

[2] = Study of solution stability for a given complex; type: physicochemical; conditions: complexes in the form of solutions
[3] = tested on: diseases affecting the plant spikes; test: Vanadyl ascorbate on wheat of Figura type, diseases affecting the plant spikes; type: in vivo; conditions: initial studies, analogous to the titanium complex
Excerpt: In the case of diseases attacking spikes, on the control combination, infestation by Cladosporium herbarum at 20%, by Septoria nodorum at 10% and by Gibberella avenacea at 10% were found. On sprayed plants, infestations were 1%, 1% and 0% respectively.

[4] = tested on: celery (Apium graveolens); test: Vanadyl ascorbate in cultivation of celery; type: in vivo; conditions: for root mass increase compared to plants from the control object: celery; for Chlorophyll / Dry mass of leaves / Dry mass of root / Flavonoids / Mass of celery leaves / Mass of celery root: sprayed three times
Protocol: Cultivation of celery (Apium graveolens) was carried out in a plastic tunnel in pots with a capacity of 3 l filled with peat substrate. Vanadyl ascorbate at a 1:2 molar ratio of V:Asc (VO(C6H7O6)2.2H2O) was applied three times during the entire cultivation in BBCH phases: 4-16 (4-6 leaves), 19-40 (10 and more leaves) and 42-44 (root development) in the form of fine-droplet spraying. Two vanadium doses of 5 g V/ha (0.001%) and 10 g V/ha (0.002%) were used. The experiment was performed in a random block system, combinations were drawn in 4 blocks. There were 20 celery plants for each combination.
The mass of celery leaves has been increased both by the application of vanadium in the amount of 5 g and 10 g/ha. […] For a smaller dose, root mass has increased by 23%, while for a dose of 10 g V/ha by 11% compared to plants from the control object. A dose of 5 g V/ha positively influenced the quality parameters of celery, the dry mass of leaves, the content of chlorophyll and flavonoids have increased. However, a dose of 10 g V/ha contributed to the increase in dry mass of leaves and to the increase in content of flavonoids. The results of this experiment indicate a biostimulatory effect of low doses of vanadium on the utility yield increase of vegetable plants and its qualitative parameters.

[5] = tested on: fusarium foot and root rot; test: Fusarium foot and root rot on wheat; type: in vivo; conditions: wheat of Figura type, initial studies, analogous to the titanium complex

## O.O.O=C1OC(C(O)CO)C([O-])=C1O.O=C1OC(C(O)CO)C([O-])=C1O.[O]=[V+2] (stereo not drawn) [VO(C6H7O6)2•2H2O, vanadyl ascorbate]
[1]
  Chlorophyll: 19.1 μg/cm^2
  Dry mass of root: 4.8%
  Flavonoids: 0.88 μg/cm^2
  Mass of radish root: 19.5 g
  increase of the content of flavonoids compared to the control: almost twice
  increase of the mass of radish root compared to the control plants: 12%
Iceberg lettuce; iceberg lettuce, 0.001% V
  Chlorophyll: 29.6 μg/cm^2
  Dry mass: 6.85%
  Flavonoids: 0.29 μg/cm^2
  Mass of lettuce head: 78.2 g
  increase of the mass of the lettuce head compared to the control: 14%
Iceberg lettuce; lettuce, g/kg d.c.
  Ca content: 18.17 g/kg
  K content: 21.84 g/kg
  Mg content: 4.92 g/kg
  P content: 3.42 g/kg
  S content: 2.69 g/kg
[2]
  stability of the solution among the complexes: most stable
[3]
  effect on the elimination of symptoms caused by diseases affecting the plant spikes: positive effect
[4]; dose of 5 g V/ha
  root mass increase compared to plants from the control object: 23%
[4]; dose of 10 g V/ha
  root mass increase compared to plants from the control object: 11%
[4]; dose of 5 g V/ha (0.001%)
  Chlorophyll: 35.0 μg/cm^2
  Dry mass of leaves: 8.9%
  Dry mass of root: 2.9%
  Flavonoids: 0.77 μg/cm^2
  Mass of celery leaves: 320.3 g
  Mass of celery root: 90.7 g
[4]; dose of 10 g V/ha (0.002%)
  Chlorophyll: 32.0 μg/cm^2
  Dry mass of leaves: 9.5%
  Dry mass of root: 3.1%
  Flavonoids: 0.72 μg/cm^2
  Mass of celery leaves: 317.3 g
  Mass of celery root: 78.5 g
[5]
  effect on the elimination of symptoms caused by fusarium foot and root rot: positive effect
